Earlier results, collected in patent US4873075A, “Polyiodinated triglyceride analogs as radiologic agents” (The University of Michigan, priority 1985, dated 1989).

System: liver
Conditions: background statement

For “tetraiodotetrachlorofluorescein [^131 I-Rose Bengal]”, which “hepatic to intestinal output” value is on record?
Its value is “slow rate of hepatic to intestinal output”.
